From patent US9102613B2, “Method for producing sorbic anhydride and also use thereof as a preservative in foods” (LANXESS DEUTSCHLAND GMBH, priority 2010, dated 2015)

Assay: preservative action in foods (e.g. fruit drinks)

Compound: C/C=C/C=C/C(=O)OC(=O)/C=C/C=C/C [all-E-sorbic anhydride]
- preservation action relative to sorbic acid or sorbate (compared with sorbic acid or sorbate, preservative for foods): approximately five times higher

Compound: C/C=C/C=C/C(=O)OC(=O)/C=C/C=C/C [sorbic anhydride]
- preservative action relative to potassium sorbate (compared with e.g. potassium sorbate, preservation of foods): about 5 times
